molecular target: mouse TRPM3α2 (mTRPM3) ion channel (Mus musculus (Mouse), UniProt J9SQF3); experiment: TRPM3 ion channel driven Ca2+ uptake, Fluo-4 AM assay, mTRPM3alpha2 overexpressing flip-in HEK293 cells stimulated with pregnenolone sulfate; assay type: cell-based; settings: PS 50 μM, cpds 200-299
Protocol: Part B Monitoring the TRPM3 Ion Channel Driven Ca^2+ Uptake.
In order to monitor the inhibition of the mouse TRPM3α2 (mTRPM3) ion channel by the compounds of the invention, a cellular system making use of an mTRPM3alpha2 or hTRPM3 overexpressing cell line (flip-in HEK293) was used. The TRPM3 channel was stimulated/opened with Pregnenolone sulfate (PS) (50 μM) which results in Ca^2+ influx.
For mTRPM3, the intracellular Ca^2+ was measured with a Calcium responsive dye. Fluor-4 AM ester (Invitrogen). Cells were cultured until a confluence of 80-90%, washed with Versene (Invitrogen) and detached from the surface by a short incubation with 0.05% Trypsin (Invitrogen). The trypsination process was stopped by the addition of complete cell culture medium (DMEM, glutamax, 10% FCS,NEAA,Pen-Strep). Cells were collected and resuspended in Krebs buffer without Calcium at RT.
Prior the cell seeding (±2000 cells/well into a black, 384 well plate (Greiner)) the diluted compound was added in the assay plate, together with the PS dissolved in Krebs buffer containing Calcium. […] Directly after cell addition the plates were read on an Envision fluorescence reader (Perkin Elmer) by an Excitation of 485 nm and emission at 535 nm.
Channel inhibition was calculated compared to a non-PS stimulated control versus a condition stimulated with PS (50 μM) with vehicle. The ability of the compounds of the invention to inhibit this activity was determined as: Percentage inhibition=[1-((RFU determined for sample with test compound present—RFU determined for sample with positive control inhibitor) divided by (RFU determined in the presence of vehicle—RFU determined for sample with positive control inhibitor))]*100.

Sequence of mouse TRPM3α2 (mTRPM3) ion channel (J9SQF3 other isoform, or with tags, fused parts or gaps): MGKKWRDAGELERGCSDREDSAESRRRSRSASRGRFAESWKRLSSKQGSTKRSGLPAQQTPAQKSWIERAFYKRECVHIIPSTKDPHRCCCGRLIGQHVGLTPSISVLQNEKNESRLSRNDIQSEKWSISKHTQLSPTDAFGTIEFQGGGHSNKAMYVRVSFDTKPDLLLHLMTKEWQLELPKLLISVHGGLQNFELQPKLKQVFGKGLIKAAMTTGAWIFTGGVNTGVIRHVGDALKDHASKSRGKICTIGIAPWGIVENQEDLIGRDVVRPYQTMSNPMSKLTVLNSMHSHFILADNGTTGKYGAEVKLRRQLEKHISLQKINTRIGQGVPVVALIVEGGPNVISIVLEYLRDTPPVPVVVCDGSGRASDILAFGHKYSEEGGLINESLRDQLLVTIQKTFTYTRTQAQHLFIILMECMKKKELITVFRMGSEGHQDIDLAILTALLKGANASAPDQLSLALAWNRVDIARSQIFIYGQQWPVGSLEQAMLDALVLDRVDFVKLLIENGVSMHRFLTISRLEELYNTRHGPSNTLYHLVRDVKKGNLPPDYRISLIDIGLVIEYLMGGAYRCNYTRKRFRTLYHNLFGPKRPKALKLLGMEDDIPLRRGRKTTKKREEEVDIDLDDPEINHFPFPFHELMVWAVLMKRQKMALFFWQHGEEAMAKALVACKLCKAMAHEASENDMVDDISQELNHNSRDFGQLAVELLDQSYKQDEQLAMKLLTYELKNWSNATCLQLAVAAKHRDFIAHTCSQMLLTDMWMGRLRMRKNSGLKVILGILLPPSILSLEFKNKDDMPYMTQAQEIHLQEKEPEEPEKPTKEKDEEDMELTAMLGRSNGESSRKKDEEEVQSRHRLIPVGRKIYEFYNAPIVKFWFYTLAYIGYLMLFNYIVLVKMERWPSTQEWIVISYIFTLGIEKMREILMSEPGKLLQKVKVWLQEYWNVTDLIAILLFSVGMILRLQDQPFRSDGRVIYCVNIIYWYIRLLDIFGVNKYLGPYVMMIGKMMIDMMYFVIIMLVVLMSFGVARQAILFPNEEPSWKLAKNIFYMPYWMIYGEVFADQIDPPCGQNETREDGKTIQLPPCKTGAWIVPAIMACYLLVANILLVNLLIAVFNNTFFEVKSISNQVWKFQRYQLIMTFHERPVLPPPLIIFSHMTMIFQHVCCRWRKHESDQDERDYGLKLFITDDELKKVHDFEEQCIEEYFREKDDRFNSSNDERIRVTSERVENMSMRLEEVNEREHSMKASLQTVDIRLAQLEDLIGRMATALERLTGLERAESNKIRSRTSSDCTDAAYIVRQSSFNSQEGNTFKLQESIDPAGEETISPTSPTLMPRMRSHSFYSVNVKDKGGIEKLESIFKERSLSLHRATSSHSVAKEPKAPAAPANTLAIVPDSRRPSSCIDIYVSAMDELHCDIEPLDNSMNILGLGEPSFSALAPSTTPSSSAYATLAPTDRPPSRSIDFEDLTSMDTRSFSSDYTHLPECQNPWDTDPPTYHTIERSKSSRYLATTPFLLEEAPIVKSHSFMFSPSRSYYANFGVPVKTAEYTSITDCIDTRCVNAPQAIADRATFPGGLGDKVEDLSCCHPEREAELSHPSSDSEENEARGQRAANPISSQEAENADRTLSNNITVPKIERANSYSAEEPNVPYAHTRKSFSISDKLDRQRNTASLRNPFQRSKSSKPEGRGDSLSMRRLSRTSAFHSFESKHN

Row | IC50 | SMILES
1 | 1 to 20 µM | Cc1oc2ccc(OCc3nccn3C)cc2c1C(=O)NC1CCNCC1(F)F (single isomer, unassigned) [cpd 205-En 1]
2 | < 1 µM | Cc1oc2ccc(OCc3nccn3C)cc2c1C(=O)NC1CCNCC1(F)F (single isomer, unassigned) [cpd 205-En 2]
3 | < 1 µM | CCOc1ncccc1COc1ccc2oc(C)c(C(=O)NC3CCNCC3(F)F)c2c1 (single isomer, unassigned) [cpd 207-En 1]
4 | > 20 µM | Cc1ncsc1COc1ccc2oc(C)c(C(=O)NC(CO)C(=O)O)c2c1 (single isomer, unassigned) [cpd 270-En 1]

same assay, conditions: PS 50 μM, cpds 300-399

Row | IC50 | SMILES
5 | < 1 µM | Cc1ncsc1COc1ccc2oc(C(F)F)c(C(=O)NC3CCNCC3(F)F)c2c1 (single isomer, unassigned) [cpd 310-En 1]
6 | < 1 µM | Cc1ncsc1COc1ccc2oc(C(F)F)c(C(=O)NC3CCNCC3(F)F)c2c1 (single isomer, unassigned) [cpd 310-En 2]
7 | < 1 µM | O=C(NC1CCNCC1(F)F)c1c(C2CC2)oc2ccc(OCc3cccnc3C(F)(F)F)cc12 (single isomer, unassigned) [cpd 313-En 1]
8 | 1 to 20 µM | O=C(NC1CCNCC1(F)F)c1c(C2CC2)oc2ccc(OCc3cccnc3C(F)(F)F)cc12 (single isomer, unassigned) [cpd 313-En 2]
9 | < 1 µM | Cc1ncsc1COc1ccc2oc(C)c(C(=O)NC(C)c3ncco3)c2c1 (single isomer, unassigned) [cpd 315-En 1]
10 | < 1 µM | Cc1ncsc1COc1ccc2oc(C)c(C(=O)NC(CO)C(F)(F)F)c2c1 (single isomer, unassigned) [cpd 316-En 1]
11 | < 1 µM | Cc1ncsc1COc1ccc2oc(C)c(C(=O)NC3COCCNC3=O)c2c1 (single isomer, unassigned) [cpd 317-En 1]
12 | < 1 µM | Cc1oc2ccc(OCc3cccnc3N3CCC3)cc2c1C(=O)NC1CCNCC1(F)F (single isomer, unassigned) [cpd 336-En 1]
13 | < 1 µM | Cc1oc2ccc(OCc3cccnc3OC(F)F)cc2c1C(=O)NC1CCNCC1(F)F (single isomer, unassigned) [cpd 338-En 1]
14 | < 1 µM | Cc1oc2ccc(OCc3cccnc3OC(F)F)cc2c1C(=O)NC1CCNCC1(F)F (single isomer, unassigned) [cpd 338-En 2]
15 | < 1 µM | Cc1oc2ccc(OCc3cccnc3C(F)F)cc2c1C(=O)NC1CCNCC1(F)F (single isomer, unassigned) [cpd 342-En 1]

same assay, conditions: PS (50 μM) stimulated, cpd 001-199

Row | IC50 | SMILES
16 | < 1 µM | Cc1ncsc1COc1ccc2oc(C)c(C(=O)NC3CNCCC3(F)F)c2c1 (single isomer, unassigned) [cpd 103-En 1]
17 | < 1 µM | Cc1oc2ccc(OCc3cccnc3C(F)(F)F)cc2c1C(=O)NC1CNCC1(F)F (single isomer, unassigned) [cpd 105-En 1, N-(4,4-difluoropyrrolidin-3-yl)-2-methyl-5-((2-(trifluoromethyl)pyridin-3-yl)methoxy)benzofuran-3-carboxamide]
18 | < 1 µM | Cc1ncsc1COc1ccc2oc(C)c(C(=O)NC3CNCC3(F)F)c2c1 (single isomer, unassigned) [cpd 106-En 1]
19 | < 1 µM | Cc1oc2ccc(OCc3cccnc3C(F)(F)F)cc2c1C(=O)NC1CNCCC1(F)F (single isomer, unassigned) [cpd 111-En 1]
20 | < 1 µM | Cc1oc2ccc(OCc3cccnc3C(F)(F)F)c(F)c2c1C(=O)NC1CCNCC1(F)F (single isomer, unassigned) [cpd 112-En 1, N-(3,3-difluoropiperidin-4-yl)-4-fluoro-2-methyl-5-((2-(trifluoromethyl)pyridin-3-yl)methoxy) -benzofuran-3-carboxamide]
21 | < 1 µM | Cc1ncsc1COc1ccc2oc(C)c(C(=O)NC3CNCC(F)(F)C3)c2c1 (single isomer, unassigned) [cpd 115-En 1]
22 | < 1 µM | Cc1oc2ccc(OCc3cccnc3C(F)(F)F)cc2c1C(=O)NC1CNCC(F)(F)C1 (single isomer, unassigned) [cpd 125-En 1]
23 | < 1 µM | Cc1ncsc1COc1ccc2oc(C)c(C(=O)NC3(CO)CCOC3)c2c1 (single isomer, unassigned) [cpd 132-En 1]
24 | < 1 µM | Cc1oc2ccc(OCc3cccnc3C(F)(F)F)cc2c1C(=O)NC1(CO)CCOC1 (single isomer, unassigned) [cpd 135-En 1]
25 | < 1 µM | Cc1oc2ccc(OCc3cccnc3C(F)(F)F)cc2c1C(=O)NC1CCOC1 (single isomer, unassigned) [cpd 148-En 1]
26 | < 1 µM | Cc1ncsc1COc1ccc2oc(C)c(C(=O)NC3CCOC3)c2c1 (single isomer, unassigned) [cpd 159-En 1]
27 | 1 to 20 µM | Cc1oc2c(F)cc(OCc3cccnc3C(F)(F)F)cc2c1C(=O)NC1CCNCC1(F)F (single isomer, unassigned) [cpd 176-En 1, N-(3,3-difluoropiperidin-4-yl)-7-fluoro-2-methyl-5-((2-(trifluoro-methyl)pyridin-3-yl)methoxy)benzofuran-3-carboxamide]
28 | < 1 µM | Cc1oc2c(F)cc(OCc3cccnc3C(F)(F)F)cc2c1C(=O)NC1CCNCC1(F)F (single isomer, unassigned) [cpd 176-En 2, N-(3,3-difluoropiperidin-4-yl)-7-fluoro-2-methyl-5-((2-(trifluoro-methyl)pyridin-3-yl)methoxy)benzofuran-3-carboxamide]

same assay, conditions: PS (50 μM) stimulated, cpds. 400-499

Row | IC50 | SMILES
29 | 1 to 20 µM | Cc1ncc(COc2ccc3oc(C)c(C(=O)NC(Cn4cncn4)C(N)=O)c3c2)s1 (single isomer, unassigned) [432-En 1, N-(1-amino-1-oxo-3-(1H-1,2,4-triazol-1-yl)propan-2-yl)-2-methyl-5-((2-methylthiazol-5-yl)methoxy)benzofuran-3-carboxamide]
30 | < 1 µM | Cc1ncc(COc2ccc3oc(C)c(C(=O)NC(Cn4cncn4)C(N)=O)c3c2)s1 (single isomer, unassigned) [432-En 2, N-(1-amino-1-oxo-3-(1H-1,2,4-triazol-1-yl)propan-2-yl)-2-methyl-5-((2-methylthiazol-5-yl)methoxy)benzofuran-3-carboxamide]
31 | < 1 µM | Cc1ncc(COc2ccc3oc(C)c(C(=O)NC(COC(F)F)C(N)=O)c3c2)s1 (single isomer, unassigned) [447-En 1, N-(1-amino-3-(difluoromethoxy)-1-oxopropan-2-yl)-2-methyl-5-((2-methylthiazol-5-yl)methoxy)benzofuran-3-carboxamide]
32 | 1 to 20 µM | Cc1ncc(COc2ccc3oc(C)c(C(=O)NC(CO)c4nc5ccccc5[nH]4)c3c2)s1 (single isomer, unassigned) [cpd 401-En 2]
33 | < 1 µM | Cc1oc2ccc(OCc3cccnc3C(F)(F)F)cc2c1C(=O)NC(C)CO (single isomer, unassigned) [cpd 489-En 2]
34 | < 1 µM | Cc1ncc(COc2ccc3oc(C)c(C(=O)NC(C)CO)c3c2)s1 (single isomer, unassigned) [cpd 490-En 1]
35 | < 1 µM | Cc1ncsc1COc1ccc2oc(C)c(C(=O)NC(C)CO)c2c1 (single isomer, unassigned) [cpd 491-En 1]

same assay, conditions: PS (50 μM) stimulated, cpds. 500-599

Row | IC50 | SMILES
36 | 1 to 20 µM | Cc1ncc(COc2ccc3oc(C)c(C(=O)NC4(CO)CCNC4)c3c2)s1 (single isomer, unassigned) [530-En 1, N-(3-(hydroxymethyl)pyrrolidin-3-yl)-2-methyl-5-((2-methylthiazol-5-yl)methoxy)benzofuran-3-carboxamide]
37 | < 1 µM | Cc1ncc(COc2ccc3oc(C)c(C(=O)NC4(CO)CCNC4)c3c2)s1 (single isomer, unassigned) [530-En 2, N-(3-(hydroxymethyl)pyrrolidin-3-yl)-2-methyl-5-((2-methylthiazol-5-yl)methoxy)benzofuran-3-carboxamide]
38 | < 1 µM | Cc1oc2ccc(OCc3cccnc3C(F)(F)F)cc2c1C(=O)NC1(CO)CCCOC1 (single isomer, unassigned) [cpd 531-En 1]
39 | < 1 µM | Cc1ncsc1COc1ccc2oc(C)c(C(=O)NC3(CO)CCCOC3)c2c1 (single isomer, unassigned) [cpd 532-En 1]
40 | < 1 µM | Cc1ncc(COc2ccc3oc(C)c(C(=O)NC4(CO)CCOC4)c3c2)s1 (single isomer, unassigned) [cpd 533-En 1]
41 | < 1 µM | Cc1oc2ccc(OCc3ccccn3)cc2c1C(=O)NC1(CO)CCOC1 (single isomer, unassigned) [cpd 534-En 1]
42 | < 1 µM | Cc1oc2ccc(OCc3cccnc3O)cc2c1C(=O)NC1(CO)CCOC1 (single isomer, unassigned) [cpd 535-En 1]
43 | < 1 µM | COc1ncccc1COc1ccc2oc(C)c(C(=O)NC3(CO)CCOC3)c2c1 (single isomer, unassigned) [cpd 536-En 1]

same assay, conditions: PS (50 μM) stimulated, cpds. 667-751

Row | IC50 | SMILES
44 | < 1 µM | Cc1oc2ccc(OCc3c[nH]nc3C(F)(F)F)cc2c1C(=O)NC1(CO)CCNC1=O (single isomer, unassigned) [730-En 1, N-(3-(Hydroxymethyl)-2-oxopyrrolidin-3-yl)-2-methyl-5-((3-(trifluoromethyl)-1H-pyrazol-4-yl)methoxy)benzofuran-3-carboxamide]

Reference: patent US12209081B2 (Katholieke Universiteit Leuven, priority 2020, dated 2025)
